Reference: US20120244567A1, “HUMAN EMBRYONIC STEM CELLS FOR HIGH THROUGHOUT DRUG SCREENING” (BUCK INSTITUTE FOR RESEARCH ON AGING, priority 2009, published 2012)
Structures can show the parent of a compound that is named as a salt.

System: NSCs
Procedure: RNAs isolated from NSCs and neurons with and without drug treatments were hybridized to Illumina HumanRef-8 BeadChip (Illumina, Inc., San Diego, Calif., performed by Microarray core facility at the Burnham Institute for Medical Research). The Illumina array data were normalized by the quantile method, and then transformed log 2 ratio values for a zero mean for expression values of each gene across all samples. The statistical and bioinformatics analyses were conducted by using R and the bioconductor package (www.bioconductor.org). The gene set enrichment analysis was conducted using the GSEA software (www.broad.mit.edu/gsea).
The comparative results are then measured by a non-parametric, running sum statistic termed the enrichment score. The enrichment score significance is assessed by 1,000 permutation tests to compute the enrichment p-value.

Compound: CCCCc1oc2ccccc2c1C(=O)c1cc(I)c(OCCN(CC)CC)c(I)c1 [Amiodarone Hydrochloride]
- Nes: Acetyltransferase Activity (Enriched In Untreated Nscs): −1.239
- Nes: Amine Transmembrane Transporter Activity (Enriched In Untreated Nscs): −0.9002
- Nes: Amino Acid Transmembrane Transporter Activity (Enriched In Untreated Nscs): −0.9455
- Nes: Atp Dependent Helicase Activity (Enriched In Untreated Nscs): −1.499
- Nes: Atp Dependent Rna Helicase Activity (Enriched In Untreated Nscs): −1.626
- Nes: Atpase Activity (Enriched In Untreated Nscs): −0.8253
- Nes: Atpase Activity Coupled (Enriched In Untreated Nscs): −1.068
- Nes: Atpase Activity Coupled To Movement Of Substances (Enriched In Untreated Nscs): −0.3743
- Nes: Atpase Activity Coupled To Transmembrane Movement Of Ions (Enriched In Untreated Nscs): −0.543
- Nes: Calcium Ion Binding (Enriched In Untreated Nscs): −1.593
- Nes: Carbohydrate Binding (Enriched In Untreated Nscs): −0.9729
- Nes: Carboxylic Acid Transmembrane Transporter Activity (Enriched In Untreated Nscs): −0.8373
- Nes: Cation Binding (Enriched In Untreated Nscs): −1.033
- Nes: Chromatin Binding (Enriched In Untreated Nscs): −1.015
- Nes: Cofactor Binding (Enriched In Untreated Nscs): −0.9326
- Nes: Cytokine Activity (Enriched In Untreated Nscs): −1.381
- Nes: Cytokine Binding (Enriched In Untreated Nscs): −1.174
- Nes: Damaged Dna Binding (Enriched In Untreated Nscs): −1.1681
- Nes: Dna Dependent Atpase Activity (Enriched In Untreated Nscs): −1.2
- Nes: Dna Helicase Activity (Enriched In Untreated Nscs): −0.5542
- Nes: Double Stranded Dna Binding (Enriched In Untreated Nscs): −0.4584
- Nes: Electron Carrier Activity (Enriched In Untreated Nscs): −0.6307
- Nes: Enzyme Activator Activity (Enriched In Untreated Nscs): −1.024
- Nes: Exopeptidase Activity (Enriched In Untreated Nscs): −0.915
- Nes: Glycosaminoglycan Binding (Enriched In Untreated Nscs): −0.9127
- Nes: Growth Factor Activity (Enriched In Untreated Nscs): −1.254
- Nes: Gtp Binding (Enriched In Untreated Nscs): −0.9695
- Nes: Gtpase Activity (Enriched In Untreated Nscs): −0.811
- Nes: Guanyl Nucleotide Binding (Enriched In Untreated Nscs): −1.265
- Nes: Helicase Activity (Enriched In Untreated Nscs): −1.374
- Nes: Heparin Binding (Enriched In Untreated Nscs): −1.015
- Nes: Hormone Activity (Enriched In Untreated Nscs): −1.196
- Nes: Hydrogen Ion Transmembrane Transporter Activity (Enriched In Untreated Nscs): −1.077
- Nes: Hydrolase Activity Acting On Acid Anhydrides (Enriched In Untreated Nscs): −0.9907
- Nes: Hydrolase Activity Acting On Acid Anhydrides Catalyzing Transmembrane Movement Of Substances (Enriched In Untreated Nscs): −0.4097
- Nes: Hydrolase Activity Acting On Carbon Nitrogen But Not Peptide Bonds (Enriched In Untreated Nscs): −0.7823
- Nes: Ion Binding (Enriched In Untreated Nscs): −1.044
- Nes: Kinase Activity (Enriched In Untreated Nscs): −0.9611
- Nes: Kinase Inhibitor Activity (Enriched In Untreated Nscs): −0.8002
- Nes: Kinase Regulator Activity (Enriched In Untreated Nscs): −0.9286
- Nes: Lipase Activity (Enriched In Untreated Nscs): −1.055
- Nes: Lipid Binding (Enriched In Untreated Nscs): −1.147
- Nes: Magnesium Ion Binding (Enriched In Untreated Nscs): −1.1144
- Nes: Metallopeptidase Activity (Enriched In Untreated Nscs): −1.06
- Nes: Microtubule Binding (Enriched In Untreated Nscs): −0.7143
- Nes: N Acetyltransferase Activity (Enriched In Untreated Nscs): −1.282
- Nes: N Acyltransferase Activity (Enriched In Untreated Nscs): −1.201
- Nes: Nucleobase Nucleoside Nucleotide Kinase Activity (Enriched In Untreated Nscs): −1.417
- Nes: Nucleoside Triphosphatase Activity (Enriched In Untreated Nscs): −0.8995
- Nes: Nucleotidyltransferase Activity (Enriched In Untreated Nscs): −0.6782
- Nes: Organic Acid Transmembrane Transporter Activity (Enriched In Untreated Nscs): −0.8193
- Nes: Oxidoreductase Activity Acting On Nadh Or Nadph (Enriched In Untreated Nscs): −1.092
- Nes: Oxidoreductase Activity Acting On The Ch Ch Group Of Donors (Enriched In Untreated Nscs): −1.2992
- Nes: Pattern Binding (Enriched In Untreated Nscs): −0.8999
- Nes: Peptide Binding (Enriched In Untreated Nscs): −0.9386
- Nes: Phospholipid Binding (Enriched In Untreated Nscs): −1.255
- Nes: Phosphotransferase Activity Alcohol Group As Acceptor (Enriched In Untreated Nscs): −0.929
- Nes: Phosphotransferase Activity Phosphate Group As Acceptor (Enriched In Untreated Nscs): −1.665
- Nes: Polysaccharide Binding (Enriched In Untreated Nscs): −0.9675
- Nes: Primary Active Transmembrane Transporter Activity (Enriched In Untreated Nscs): −0.3858
- Nes: Protein Dimerization Activity (Enriched In Untreated Nscs): −1.017
- Nes: Protein Heterodimerization Activity (Enriched In Untreated Nscs): −1.3399
- Nes: Protein Homodimerization Activity (Enriched In Untreated Nscs): −0.801
- Nes: Protein Kinase Inhibitor Activity (Enriched In Untreated Nscs): −0.7805
- Nes: Protein Kinase Regulator Activity (Enriched In Untreated Nscs): −0.8809
- Nes: Protein N Terminus Binding (Enriched In Untreated Nscs): −0.5542
- Nes: Pyrophosphatase Activity (Enriched In Untreated Nscs): −1.053
- Nes: Ras Gtpase Binding (Enriched In Untreated Nscs): −0.9567
- Nes: Receptor Activity (Enriched In Untreated Nscs): −1.044
- Nes: Receptor Binding (Enriched In Untreated Nscs): −1.0604
- Nes: Receptor Signaling Protein Serine Threonine Kinase Activity (Enriched In Untreated Nscs): −0.7954
- Nes: Rhodopsin Like Receptor Activity (Enriched In Untreated Nscs): −1.049
- Nes: Rna Binding (Enriched In Untreated Nscs): −0.6659
- Nes: Rna Dependent Atpase Activity (Enriched In Untreated Nscs): −1.8058
- Nes: Rna Helicase Activity (Enriched In Untreated Nscs): −1.68
- Nes: Signal Sequence Binding (Enriched In Untreated Nscs): −0.8286
- Nes: Structural Constituent Of Ribosome (Enriched In Untreated Nscs): −0.6343
- Nes: Transferase Activity Transferring Acyl Groups (Enriched In Untreated Nscs): −0.9146
- Nes: Transferase Activity Transferring Hexosyl Groups (Enriched In Untreated Nscs): −0.8814
- Nes: Transferase Activity Transferring Phosphorus Containing Groups (Enriched In Untreated Nscs): −1.002
- Nes: Transmembrane Receptor Activity (Enriched In Untreated Nscs): −1.132
- Nes: Tubulin Binding (Enriched In Untreated Nscs): −1.169
- Nes: Udp Glycosyltransferase Activity (Enriched In Untreated Nscs): −0.9459
- Nes: Acid Amino Acid Ligase Activity (enriched in treated NSCs): 0.7777
- Nes: Actin Binding (enriched in treated NSCs): 0.7455
- Nes: Actin Filament Binding (enriched in treated NSCs): 1.029
- Nes: Active Transmembrane Transporter Activity (enriched in treated NSCs): 0.8495
- Nes: Adenyl Nucleotide Binding (enriched in treated NSCs): 0.9485
- Nes: Adenyl Ribonucleotide Binding (enriched in treated NSCs): 0.9696
- Nes: Anion Transmembrane Transporter Activity (enriched in treated NSCs): 1.216
- Nes: Atp Binding (enriched in treated NSCs): 0.8813
- Nes: Calmodulin Binding (enriched in treated NSCs): 0.7204
- Nes: Carbon Oxygen Lyase Activity (enriched in treated NSCs): 0.4048
- Nes: Cation Channel Activity (enriched in treated NSCs): 0.9023
- Nes: Cation Transmembrane Transporter Activity (enriched in treated NSCs): 1.013
- Nes: Cysteine Type Endopeptidase Activity (enriched in treated NSCs): 1.621
- Nes: Cysteine Type Peptidase Activity (enriched in treated NSCs): 1.575
- Nes: Deoxyribonuclease Activity (enriched in treated NSCs): 1.357
- Nes: Endonuclease Activity (enriched in treated NSCs): 0.5289
